Test results published in article PMC4888278, “Structural determinant for inducing RORgamma specific inverse agonism triggered by a synthetic benzoxazinone ligand” (BMC Structural Biology, 2016).
Values belong to the molecule of their own block, whether it stands above or below them.

Columns and labels:
RORγ [1] = system: RORγ; parameters: method as in PMID 24239186; details: SRC1 displacement FRET assay; cited from earlier work
RORγ [2] = biological target: T1, RORγ (Homo sapiens, UniProt P51449); test: FRET based assay monitoring coactivator peptide TRAP220 recruitment to RORγ; format: biochemical
T1 construct: sub-cloning residues 259 to 518 of a human RORγ cDNA; GST (PreScission site) (N); made in house; host or cells: Escherichia coli BL21 (DE3)
T1 sequence (P51449 259-518): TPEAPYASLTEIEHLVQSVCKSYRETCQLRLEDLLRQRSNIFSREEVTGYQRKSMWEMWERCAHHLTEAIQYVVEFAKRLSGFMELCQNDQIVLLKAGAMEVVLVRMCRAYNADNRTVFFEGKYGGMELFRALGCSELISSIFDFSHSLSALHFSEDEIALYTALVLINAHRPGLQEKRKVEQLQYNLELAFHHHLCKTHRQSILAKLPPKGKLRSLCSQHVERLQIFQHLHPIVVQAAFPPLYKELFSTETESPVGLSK
Description: (§1) FRET-based (Fluorescence Resonance Energy Transfer) assay and the GAL4 Reporter assay were performed as described previously. BIO592 and BIO399 were synthesized (Additional file 1) and belonged to a proprietary library where they were identified as RORγ activity modulators using the FRET-based assay.

[3] = biological target: T2, GAL4 fused to the LBD of RORβ (Homo sapiens, UniProt Q92753); test: GAL4 cellular luciferase reporter assay, GAL4 fused to LBD of RORβ; format: cell-based
T2 construct: cells expressing GAL4 fused to the LBD of ROR α or β, respectively; expressed in transfected cells
T2 sequence (Q92753 222-460 limits assumed): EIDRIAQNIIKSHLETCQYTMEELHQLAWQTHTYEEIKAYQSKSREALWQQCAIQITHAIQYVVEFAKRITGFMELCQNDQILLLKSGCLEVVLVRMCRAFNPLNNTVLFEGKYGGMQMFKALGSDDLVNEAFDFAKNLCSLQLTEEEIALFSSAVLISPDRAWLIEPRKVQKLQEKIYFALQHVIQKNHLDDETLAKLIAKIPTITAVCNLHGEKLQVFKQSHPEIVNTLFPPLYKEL
Description: as §1
(§2) In order to assess the in vivo selectivity profile of BIO399 a cellular reporter assay was implemented where the ligand binding domains of ROR α, β and γ were fused to the DNA binding domain of the transcriptional factor GAL4. The ROR-GAL4 fusion proteins were expressed in cells with the luciferase reporter gene under the control of a GAL4 promoter. […] The LBS of RORs share a high degree of similarity. However, the inverse agonism trigger of BIO399, residue Met358, is a leucine in both RORα and β. This selectivity profile for BIO399 is attributed to the shorter leucine side chain in RORα and β which would not reach the phenylalanine on the AF2 helix further underscoring the role of Met358 as a trigger for RORγ specific inverse agonism (Fig. 7a). Furthermore, RORα contains two phenylalanine residues in its LBS whereas RORβ and γ have a leucine in the same position (Fig. 6b). We hypothesize that the two phenylalanine residues in the LBS of RORα occlude the dihydrobenzoxazepinone ring system of BIO399 from binding it and responsible for the increase in […].

RORγ-GAL4 fusion = biological target: T3, RORγ-GAL4 fusion (Homo sapiens, UniProt P51449); test: GAL4 cellular luciferase reporter assay, RORγ-GAL4 fusion; format: cell-based
T3 construct: expressed in transfected cells
T3 sequence (P51449 269-508 limits assumed): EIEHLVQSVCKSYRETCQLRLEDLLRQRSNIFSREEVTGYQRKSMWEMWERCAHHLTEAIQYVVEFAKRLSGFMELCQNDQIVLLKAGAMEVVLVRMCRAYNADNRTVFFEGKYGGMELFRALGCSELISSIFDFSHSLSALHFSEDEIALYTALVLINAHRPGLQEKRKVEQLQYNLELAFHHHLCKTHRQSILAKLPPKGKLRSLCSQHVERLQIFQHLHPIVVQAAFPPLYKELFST
Description: as §1, §2

[4] = biological target: T4, GAL4 fused to the LBD of RORα (Homo sapiens, UniProt P35398); test: GAL4 cellular luciferase reporter assay, GAL4 fused to LBD of RORα; format: cell-based
T4 construct: cells expressing GAL4 fused to the LBD of ROR α or β, respectively; expressed in transfected cells
T4 sequence (P35398 272-510 limits assumed): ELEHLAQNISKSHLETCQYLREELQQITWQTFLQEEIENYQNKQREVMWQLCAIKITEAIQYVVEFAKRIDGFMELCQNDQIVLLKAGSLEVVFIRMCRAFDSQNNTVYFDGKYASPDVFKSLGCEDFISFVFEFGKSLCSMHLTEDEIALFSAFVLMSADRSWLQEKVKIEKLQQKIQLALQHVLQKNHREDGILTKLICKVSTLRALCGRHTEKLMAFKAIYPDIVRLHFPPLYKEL
Description: as §1, §2

[5] = biological target: T5, RORγ518 (human RORγ ligand binding domain, residues 259-518) (human, UniProt P51449 259-518); test: crystal structure; RORγ518 8 mg/ml with 0.5 mM EBI96 and 1 mM agonist BIO592; vapor diffusion, 0.1 M HEPES pH 8.0, 25 % PEG3350, 0.2 M NaCl, 18 °C; 2.63 Å, P21, four ternary complexes in the asymmetric unit; details: both partners purified
T5 construct: Cloned in pGEX-6P; GST removed with PreScission Protease before SEC, crystallisation and proteolysis; also called GST-RORγ518 (before cleavage); source: E. coli BL21 (DE3), purified (Glutathione Sepharose, PreScission Protease, Superdex 75); not shown: GST, N-terminal, cleaved
T5 sequence (looked up): T1 sequence (P51449 259-518)

Emax (RORγ [2]; agonist, coactivator peptide TRAP220 recruitment): 130%
EC50 (RORγ [2]; agonist, increase of coactivator peptide TRAP220 recruitment to RORγ): 58 nM
Molecule: CCN1C(=O)COc2cc(N(CC(F)(F)F)S(=O)(=O)c3ccc(C)c(C)c3)ccc21 [BIO592, N-(4-ethyl-3-oxo-3,4-dihydro-2H-benzo[b][1,4]oxazin-7-yl)-3,4-dimethyl-N-(2,2,2-trifluoroethyl)benzenesulfonamide]

IC50 ([3]; GAL4 cell assay, RORβ, N = 2): > 1200 nM
Selectivity ([3]; GAL4 cell assay, RORγ versus RORβ): >28.2 X
fold selectivity over RORβ ([3]; GAL4 reporter, RORγ versus RORβ): > 28 fold
IC50 (RORγ-GAL4 fusion; GAL4 cell assay, RORγ, N = 6): 43 nM
IC50 (RORγ-GAL4 fusion; luciferase activity, cells expressing RORγ-GAL4 fusion): 42.5 nM
IC50 (RORγ [2]; inverse agonist, inhibition of coactivator recruitment in the authors' FRET assay): 4.7 nM
IC50 ([4]; GAL4 cell assay, RORα, N = 2): > 10000 nM
Selectivity ([4]; GAL4 cell assay, RORγ versus RORα): >235 X
fold selectivity over RORα ([4]; GAL4 reporter, RORγ versus RORα): > 235 fold
Molecule: CCN1C(=O)C(C)(C)COc2cc(N(CC(F)(F)F)S(=O)(=O)c3ccc(C)c(C)c3)ccc21 [BIO399, N-(9-Ethyl-7,7-dimethyl-8-oxo-6,7,8,9-tetrahydro-5-oxa-9-aza-benzocyclohepten-3-yl)-3,4-dimethyl-N-(2,2,2-trifluoro-ethyl)-benzenesulfonamide]

binding result [5]: binds
B1: coactivator peptide EBI96 (peptide)
peptide: EFPYLLSLLGEVSPQ
notes: source: synthetic peptide; bought: New England Peptide
